The subject of this assay is CEM cells HIV-1 protection, formazan growth assay. The experiment in a line: NCI AIDS Antiviral Assay. Conditions: for IC50: measured here: growth of uninfected CEM cells. In short, it runs like this: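 Human CEM cells, uninfected and HIV-1-infected, exposed to five drug concentrations; growth measured by soluble formazan assay and scored as percent protection from infection, with protecting compounds retested.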

A word on the EC50: it is the concentration giving half of the maximal effect. What is called IC50 is the midpoint of a concentration-inhibition curve. High values mean lower potency, low ones higher potency.

Activity calls are given as the source filed them.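 The calls were made as follows: active = compounds giving half or more protection of infected cells from virus-caused growth loss, again on retest; inactive = the rest.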 Where only a bound is given, the exact number is not on record here.

Take `Cc1cc(N=Nc2ccc(C(=O)O)cc2)c(N)c(N=Nc2ccc(N=Nc3ccc(O)c(C(=O)O)c3)cc2)c1N`: the EC50 amounted to 38 µM and the IC50 is 195 µM. For the molecule `NC(=S)N/N=C\C12CC3CC(CC(C3)C1)C2`, the result was inactive.

`COC(=O)[C@@H]1C[C@@]2(C3C=CN(C(=O)C(F)(F)F)C=C3)c3ccccc3N(C(=O)C(F)(F)F)[C@H]2N1C(=O)OC`: the EC50 is greater than 200 µM and the IC50 was 166 µM.

For `O=C1/C(=C\c2ccccc2)Oc2ccc(Cl)cc21`, the EC50 was greater than 14.5 µM and the half-maximal inhibitory concentration (IC50) was greater than 14.5 µM. Turning to `CC(C)COP(C)(=O)C(N)(C(F)(F)F)C(F)(F)F` (stereo not drawn), the EC50 was greater than 200 µM and the IC50 is greater than 200 µM.

Consider `COc1ccc(/C=C2/C(=O)N(C(=O)c3ccc(Cl)cc3)N=C2C)cc1OC`, for which the EC50 was greater than 35.5 µM and the IC50 is greater than 35.5 µM.

For the molecule `COC(=O)c1cc2c(=O)n(C)c3ccccc3n2c1C(=O)OC`, the EC50 was greater than 56.2 µM and the IC50 was 32.4 µM. For the molecule `CC(=Nc1ccc(Cl)c(Cl)c1)c1ccncc1`, the result was inactive. Turning to `COc1cc2c3c(c1OC)C1(C=CC(=O)C=C1)C[C@H]3N(C)CC2`, the result was inactive. Regarding `N#Cc1c(C[n+]2ccccc2)c2ccccc2oc1=O`, the EC50 is 617 µM and the half-inhibitory concentration (IC50) is 646 µM. The matching figures for `O=S(=O)(F)c1cc(C[P+](c2ccccc2)(c2ccccc2)c2ccccc2)ccc1Cl`: greater than 200 µM and 91.2 µM. The matching figures for `COc1ccc(C2=NOC(N)(c3ccc(OC)cc3)C2)cc1` (stereo not drawn): greater than 200 µM and greater than 200 µM. With `COc1ccc(OC)c(NC(=O)C(=O)NNC(=O)c2sc(NNC(C)=O)nc2C)c1`, the outcome was inactive. With `Cc1ccc(C2(O)c3ccccc3C(=O)N(C)C2(O)c2ccc(C)cc2)cc1` (stereo not drawn), the EC50 was greater than 200 µM and the IC50 is 12.9 µM. The matching figures for `COC(=O)c1c2c(cc3c1CC1(Cc4cc5c(c(C(C)=O)c4C1)CCC5)C3)CCC2` (stereo not drawn): greater than 6.46 µM and greater than 6.46 µM.

Regarding `Cc1c(Cl)ccc2c1NC(=O)C2(O)C(C(=O)c1ccccc1)c1ccccc1` (stereo not drawn), the EC50 is greater than 66.1 µM and the 50% inhibitory concentration (IC50) is greater than 66.1 µM. In the case of `Fc1cccc(C2ON=C(c3ccccc3)N2C23CC4CC(CC(C4)C2)C3)c1` (stereo not drawn), the EC50 is greater than 200 µM and the concentration for half-maximal inhibition (IC50) is greater than 200 µM.

Consider `CCOC1CSc2ccccc2C(c2ccccc2)=N1` (stereo not drawn), for which the EC50 was 195 µM and the IC50 was greater than 200 µM. The matching figures for `N#CCc1nc(-c2ccccc2)n[nH]1`: greater than 200 µM and greater than 200 µM. Taken in the same sequence, the figures for `NC(=O)OCC(COc1ccc(Cl)cc1)OC(=O)c1ccccc1Cl` (stereo not drawn) were greater than 93.3 µM and 70.8 µM.

As for `CCCNC(=O)N(C(C)C)S(=O)(=O)c1ccc(Cl)cc1`, the outcome was inactive. Still for that read-out and setting: the entry for `CNC(=S)SSC(=S)NCCNC(=S)SSC(=S)NC` is “inactive”; for `O=[N+]([O-])c1ccc(C2=Nn3cnnc3SC2)o1` it is “inactive”.

For the molecule `CCN(CC)CCCNCc1cc(Cl)c2cccnc2c1O`, the EC50 was greater than 200 µM and the IC50 was determined as 9.77 µM. Take `CCN(CC)CC(C(=O)Nc1c(C)cccc1C)/C(C)=N\NC(=S)NN` (stereo not drawn): the EC50 was greater than 35.5 µM and the IC50 is greater than 35.5 µM. Turning to `NC(CC(=O)O)C(=O)NC1Cc2ccccc2C1=O` (stereo not drawn), the EC50 is greater than 200 µM and the half-inhibitory concentration (IC50) was determined as 97.7 µM. Turning to `CC(NC(=O)C(=O)N/N=C1\CC(c2ccccc2)Sc2ccccc21)c1ccccc1` (stereo not drawn), the result was inactive.

Take `CC(C)(C)[Si](C)(C)OCc1cccc(OCCOc2cccc(CO[Si](C)(C)C(C)(C)C)c2[N+](=O)[O-])c1[N+](=O)[O-]`: the EC50 was greater than 50.1 µM and the IC50 is greater than 50.1 µM.

Take `COc1ncnc2c1ncn2C1OC(CO)(C(F)(F)F)C(O)C1O` (stereo not drawn): the EC50 was greater than 200 µM and the 50% inhibitory concentration (IC50) was greater than 200 µM. Turning to `O=P(c1ccccc1)(c1ccccc1)C1CC=C(c2ccccc2)C2(CCCC2)C1` (stereo not drawn), the EC50 was greater than 8.71 µM and the half-inhibitory concentration (IC50) was greater than 8.71 µM. On to `CCOC(=O)Nc1cc2nnc(-c3ccccc3)nc2c(N)n1`, for which the outcome was inactive. Regarding `O=C1CSC(c2cccc(Cl)c2)N1N1C(=O)CSC1c1cccc(Cl)c1` (stereo not drawn), the EC50 was greater than 200 µM and the half-inhibitory concentration (IC50) turned out to be 66.1 µM. For the molecule `C=CCN(CCN(CC=C)S(=O)(=O)c1ccc(C)cc1)S(=O)(=O)c1ccc(C)cc1`, the EC50 is greater than 22.4 µM and the IC50 was greater than 22.4 µM.

As to `O=C(O)/C(O)=C1/C=C(c2ccccc2)c2ccccc21`, the result was inactive. With `C=CC1CN2CCC1CC2C(O)c1ccnc2ccc(OC)cc12` (stereo not drawn), the EC50 was greater than 200 µM and the half-inhibitory concentration (IC50) is greater than 100 µM. The matching figures for `O=c1[nH]c(=O)n(COCCO)c2ccsc12`: greater than 200 µM and greater than 200 µM. Taken in the same sequence, the figures for `Cc1ccc2c(c1)c1ccc3c(c1n2C)C(=O)C=CC3=O` were greater than 100 µM and 2.45 µM.

In the case of `CC1=NN(c2ccccc2)C(=O)C12[C@H](c1ccccc1)C2(C#N)C#N` (stereo partly drawn), the EC50 is greater than 21.9 µM and the IC50 was determined as 3.39 µM.

Turning to `C/C(=C1/N=C(c2cc([N+](=O)[O-])ccc2Cl)N(c2ccc(Br)cc2)C1=O)c1ccc(N(CCC#N)CCC#N)cc1C`, the EC50 is greater than 11.5 µM and the half-maximal inhibitory concentration (IC50) was greater than 11.5 µM. `CN(C)CCCN1C(=S)N(CCCN(C)C)c2c3cc(O)ccc3nc3c([N+](=O)[O-])ccc1c23`: the EC50 was greater than 2 µM and the IC50 stood at 0.417 µM. Taken in the same sequence, the figures for `CC(C)(C)C(C)(C)SSC(C)(C)C(C)(C)C` were greater than 200 µM and greater than 200 µM.

On to `COc1ccc(C2c3cc4c(cc3OC(Nc3ccccc3)C2C)OCO4)cc1` (stereo not drawn), for which the EC50 is greater than 200 µM and the IC50 worked out at 24.5 µM. Taken in the same sequence, the figures for `O=C(Cc1ccccc1)NNc1nc(NNC(=O)c2ccncc2)nc(Nc2ccc([N+](=O)[O-])cc2)n1` were greater than 100 µM and 11.5 µM.

Turning to `CC1=CC2(C)C=C(C)C3(OC(c4ccccc4)=C(C#N)C3=N2)C1=O` (stereo not drawn), the EC50 was greater than 70.8 µM and the IC50 came out at 34.7 µM. For the molecule `Cc1ccc(C2(C)CCC(C(C)(C)O)OO2)cc1` (stereo not drawn), the result was inactive. As for `O=c1c(CCO)c(C2CC2)n2n1CCCC2`, the EC50 is greater than 1120 µM and the IC50 was greater than 200 µM. The matching figures for `COc1cc2c(cc1O)C1CC(CC3CCCCN31)OC(=O)/C=C\c1ccc(O)c-2c1` (stereo not drawn): greater than 200 µM and 45.7 µM. The matching figures for `CCOC(=O)/C(=C/c1ccc(C)cc1)C(=O)c1ccccc1`: greater than 24.5 µM and 15.1 µM. Taken in the same sequence, the figures for `Clc1cccc(N2CCN(CCN3CCc4c([nH]c5ccccc45)C3c3cccnc3)CC2)c1` (stereo not drawn) were greater than 2.19 µM and greater than 2.19 µM.

With `COc1c2c(cc3c1C(=O)Cc1ccc4c(c1CN(C)CC3)OCO4)OCO2`, the EC50 was greater than 35.5 µM and the half-inhibitory concentration (IC50) is greater than 35.5 µM. As to `CCOP(=O)(OCC)/C(C#N)=C(\C)c1ccco1`, the EC50 was greater than 200 µM and the IC50 is greater than 200 µM. On to `O=C1/C(=C/c2ccc(Cl)cc2)CCCc2ccccc21`, for which the EC50 is greater than 200 µM and the half-inhibitory concentration (IC50) came to 22.9 µM. On to `Cc1cc(NC[C@H](O)[C@H](O)[C@H](O)CO)c(Sc2cc(=O)[nH]c(=O)[nH]2)cc1C`, for which the outcome was inactive. Turning to `Cc1nn(C(=O)c2ccc(Cl)cc2)c2c1C(c1ccccc1O)SC(N)=N2` (stereo not drawn), the EC50 is greater than 200 µM and the IC50 was found to be 107 µM.

In the case of `CCCCC1=C(C(=O)N2CCOCC2)C2(OCCO2)C1Cl` (stereo not drawn), the EC50 was greater than 58.9 µM and the IC50 was determined as 10 µM. `COC(=O)/C(=N\NC(N)=O)C(C#N)c1ccccc1` (stereo not drawn): the EC50 is greater than 692 µM and the half-maximal inhibitory concentration (IC50) was greater than 692 µM.

For `CCCCCCCCCCCCCCCCCCOCC(C[N+]1(C)CCC(O)CC1)OCC` (stereo not drawn), the EC50 was greater than 0.912 µM and the IC50 is greater than 0.912 µM. Turning to `CC(C1=CC(=O)c2c(O)ccc(O)c2C1=O)C1=CC(=O)c2c(O)ccc(O)c2C1=O`, the outcome was inactive.

As for `O=C1C2CN(Cc3ccccc3)CC2C(=O)N1c1ccccc1` (stereo not drawn), the EC50 was greater than 200 µM and the half-maximal inhibitory concentration (IC50) was greater than 200 µM. Turning to `C=C1C(=O)[C@]23C[C@H]1CC[C@H]2[C@@]12CO[C@@H](O)[C@@H]1C(C)(C)[C@@H](O)C[C@@H]2OC3=O`, the EC50 was greater than 692 µM and the half-maximal inhibitory concentration (IC50) was found to be 26.3 µM. The matching figures for `CCOC(=O)C1=C(Nc2ccc(Br)cc2)OC/C1=N\NC(=O)c1ccccc1O`: greater than 38.9 µM and 3.98 µM.

As to `CCOC(=S)SCCSC`, the EC50 was greater than 200 µM and the IC50 was greater than 200 µM. Take `O=C(O)c1ccccc1/C=N/NC1=CS(=O)(=O)C=C1`: the outcome was inactive. Regarding `C[n+]1c(-c2ccc(/C=N\NC(=O)N/N=C/c3ccc(-c4cn5ccccc5[n+]4C)cc3)cc2)cn2ccccc21`, the EC50 was 36.3 µM and the half-maximal inhibitory concentration (IC50) amounted to 47.9 µM. Turning to `CC1(C)CCC[C@@]2(C)C1CC[C@@]1(CO1)[C@@H]2/C=C\C(C=O)CC=O` (stereo partly drawn), the result was inactive. As to `CCOP(=O)(CC(=O)c1cc2ccccc2[nH]1)OCC`, the EC50 was greater than 851 µM and the IC50 came to 437 µM.

As for `N#CC(C#N)=C/C=C/c1ccccc1[N+](=O)[O-]`, the EC50 is greater than 200 µM and the IC50 worked out at 3.47 µM.

As to `CN1C(=O)Cn2c(nn(Cc3ccccc3)c(=O)c2=O)-c2cc(Cl)ccc21`, the concentration for a half-maximal effect (EC50) was 42.7 µM and the concentration for half-maximal inhibition (IC50) came to 67.6 µM. The matching figures for `NC(=O)C(c1ccccc1)N1CCCC1` (stereo not drawn): greater than 200 µM and greater than 200 µM.

In the case of `COc1ccc(/C=c2\[nH]c3nc(=O)c(N4CCCCC4)c(N)n3c2=O)cc1`, the EC50 was greater than 200 µM and the IC50 came to 120 µM. Taken in the same sequence, the figures for `COc1nc(C(=O)O)c(Cl)c(OC)c1Cl` were greater than 513 µM and greater than 513 µM. The matching figures for `CC1(c2cccc([N+](=O)[O-])c2)C(C#N)C(=O)NC(=O)C1C#N` (stereo not drawn): greater than 417 µM and 245 µM.

`[O-]c1c[n+](C23CCC(c4ccccc42)c2ccccc23)no1`: the EC50 was greater than 200 µM and the half-maximal inhibitory concentration (IC50) was found to be 97.7 µM.

Take `COc1ccc(/C=C/C(C(=O)O)C(=O)O)cc1`: the EC50 was greater than 398 µM and the 50% inhibitory concentration (IC50) was 56.2 µM.
